According to PubChem BioAssay AID248 (DTP/NCI, 2004):
Where “and” joins values, the source holds several entries; their conditions need not be identical. Equal values may be shown once. Inconclusive results and toxic doses are left out. Rule as the data show it: active = T/C of 150% or more; inactive = T/C below 125%.

System: L1210 leukemia ip in BDF1 mice, survival T/C
Assay: NCI In Vivo Anticancer Drug Screen. Data for tumor model L1210 Leukemia (intraperitoneal) in B6D2F1 (BDF1) mice
Conditions: endpoint: mean survival time, higher = longer survival
Outline: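 Antitumor effect is assessed in tumor-bearing animals. Survival in the compound arm is compared with a vehicle-dosed control arm and expressed as their quotient.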

[1] = dose: 100.0 mg/kg/injection, schedule: Q01DX009 (ip), vehicle: saline with Tween-80
[2] = dose: 200.0 mg/kg/injection, schedule: Q01DX009 (ip), vehicle: saline with Tween-80
[3] = dose: 100.0 mg/kg/injection, schedule: Q04DX003 (ip), vehicle: saline with Tween-80
[4] = dose: 200.0 mg/kg/injection, schedule: Q04DX003 (ip), vehicle: saline with Tween-80
[5] = dose: 400.0 mg/kg/injection, schedule: Q04DX003 (ip), vehicle: saline with Tween-80
[6] = dose: 100.0 mg/kg/injection, schedule: Q01DX009 (ip), vehicle: Klucel (hydroxypropylcellulose) (HPC)
[7] = dose: 200.0 mg/kg/injection, schedule: Q01DX009 (ip), vehicle: Klucel (hydroxypropylcellulose) (HPC)
[8] = dose: 100.0 mg/kg/injection, schedule: Q01DX009 (ip), vehicle: saline
[9] = dose: 100.0 mg/kg/injection, schedule: Q04DX003 (ip), vehicle: saline
[10] = dose: 200.0 mg/kg/injection, schedule: Q01DX009 (ip), vehicle: saline
[11] = dose: 200.0 mg/kg/injection, schedule: Q04DX003 (ip), vehicle: saline
[12] = dose: 400.0 mg/kg/injection, schedule: Q01DX009 (ip), vehicle: saline
[13] = dose: 400.0 mg/kg/injection, schedule: Q04DX003 (ip), vehicle: saline
[14] = dose: 100.0 mg/kg/injection, schedule: Q01DX001 (ip), vehicle: Klucel (hydroxypropylcellulose) (HPC)
[15] = dose: 100.0 mg/kg/injection, schedule: Q04DX003 (ip), vehicle: Klucel (hydroxypropylcellulose) (HPC)
[16] = dose: 200.0 mg/kg/injection, schedule: Q01DX001 (ip), vehicle: Klucel (hydroxypropylcellulose) (HPC)
[17] = dose: 200.0 mg/kg/injection, schedule: Q04DX003 (ip), vehicle: Klucel (hydroxypropylcellulose) (HPC)
[18] = dose: 400.0 mg/kg/injection, schedule: Q01DX001 (ip), vehicle: Klucel (hydroxypropylcellulose) (HPC)
[19] = dose: 400.0 mg/kg/injection, schedule: Q04DX003 (ip), vehicle: Klucel (hydroxypropylcellulose) (HPC)
[20] = dose: 400.0 mg/kg/injection, schedule: Q01DX009 (ip), vehicle: Klucel (hydroxypropylcellulose) (HPC)

Measured: T/C

CC(O)c1cccc([N+](=O)[O-])c1 (stereo not given)
inactive: [1] 104 % of control | [2] 94 % of control | dose: 400.0 mg/kg/injection, schedule: Q01DX009 (ip), vehicle: saline with Tween-80 90 % of control

CCCCC(=O)Nc1cccc(OC(=O)NC)c1
inactive: [3] 92 % of control | [4] 95 % of control | [5] 87 % of control

O=C(Nc1c[nH]c(=O)[nH]c1=O)C(Cl)Cl
inactive: dose: 16.0 mg/kg/injection, schedule: Q01DX Z (ip), vehicle: methylcellulose (MC) 91 % of control | dose: 31.0 mg/kg/injection, schedule: Q01DX Z (ip), vehicle: methylcellulose (MC) 95 % of control | dose: 50.0 mg/kg/injection, schedule: Q01DX009 (ip), vehicle: Klucel (hydroxypropylcellulose) (HPC) 103 % of control | dose: 62.0 mg/kg/injection, schedule: Q01DX Z (ip), vehicle: methylcellulose (MC) 93 % of control | [6] 104 % of control | dose: 125.0 mg/kg/injection, schedule: Q01DX Z (ip), vehicle: methylcellulose (MC) 90 % of control | [7] 117 % of control

CC1CCC(NC(=O)NCCCl)c2ccccc21 (stereo not given)
inactive: dose: 20.0 mg/kg/injection, schedule: Q04DX003 (ip), vehicle: Klucel (hydroxypropylcellulose) (HPC) 102 % of control | dose: 40.0 mg/kg/injection, schedule: Q04DX003 (ip), vehicle: Klucel (hydroxypropylcellulose) (HPC) 100 % of control | dose: 80.0 mg/kg/injection, schedule: Q04DX003 (ip), vehicle: Klucel (hydroxypropylcellulose) (HPC) 100 % of control

CC1CCOC(C)O1 (stereo not given)
inactive: [8] 103 % of control | [9] 100 % of control | [10] 91 % of control | [11] 94 % of control | [12] 96 % of control | [13] 94 % of control

O=C(COc1ccc(Cl)cc1)Nc1ccc(S(=O)(=O)O)c2ccccc12
inactive: dose: 100.0 mg/kg/injection, schedule: Q04DX002 (ip), vehicle: Klucel (hydroxypropylcellulose) (HPC) 98 % of control | dose: 200.0 mg/kg/injection, schedule: Q04DX002 (ip), vehicle: Klucel (hydroxypropylcellulose) (HPC) 98 % of control | dose: 400.0 mg/kg/injection, schedule: Q04DX002 (ip), vehicle: Klucel (hydroxypropylcellulose) (HPC) 98 % of control

O=[N+]([O-])c1ccc(Cl)c2c([N+](=O)[O-])cccc12
inactive: [3] 94 % of control | [4] 102 % of control

CCCCCCCCCCCCOc1ccc2ccccc2c1
inactive: [3] 97 % of control | [4] 95 % of control | [5] 108 % of control

CC[N+](C)(CC)CCNC(=O)C(c1ccccc1)c1ccccc1
inactive: [9] 100 % of control

O=C(OCCCl)c1ccccc1
inactive: dose: 60.0 mg/kg/injection, schedule: Q01DX009 (ip), vehicle: Klucel (hydroxypropylcellulose) (HPC) 103 % of control | [14] 106 % of control | [15] 101 % of control | dose: 120.0 mg/kg/injection, schedule: Q01DX009 (ip), vehicle: Klucel (hydroxypropylcellulose) (HPC) 100 % of control | [16] 98 % of control | [17] 101 % of control | dose: 240.0 mg/kg/injection, schedule: Q01DX009 (ip), vehicle: Klucel (hydroxypropylcellulose) (HPC) 94 % of control | [18] 98 % of control | [19] 101 % of control

O=C(N/N=C/c1ccc2c(c1)CCC2)c1cccs1
inactive: [15] 97 % of control | [17] 103 % of control | [19] 107 % of control

O=C(Nc1ccc(CCO)cc1)Nc1cccc(F)c1
inactive: [6] 103 % of control | [7] 102 % of control | [20] 88 % of control

O=S(=O)(/C=C/c1ccc(-c2ccccc2)cc1)c1ccccc1
inactive: dose: 100.0 mg/kg/injection, schedule: Q01DX001 (ip), vehicle: acetone 101 % of control | [8] 94 % of control | dose: 100.0 mg/kg/injection, schedule: Q04DX003 (ip), vehicle: acetone 108 % of control | dose: 200.0 mg/kg/injection, schedule: Q01DX001 (ip), vehicle: acetone 89 % of control | [10] 96 % of control | dose: 200.0 mg/kg/injection, schedule: Q04DX003 (ip), vehicle: acetone 96 % of control | dose: 400.0 mg/kg/injection, schedule: Q01DX001 (ip), vehicle: acetone 98 % of control | [12] 96 % of control | dose: 400.0 mg/kg/injection, schedule: Q04DX003 (ip), vehicle: acetone 96 % of control

CCC/C=N/Nc1ccnc(SCc2ccccc2)n1
inactive: dose: 75.0 mg/kg/injection, schedule: Q01DX009 (ip), vehicle: DMSO 88 % of control

ClCC1Oc2ccccc2O1
inactive: dose: 100.0 mg/kg/injection, schedule: Q01DX001 (ip), vehicle: other 101 % of control | dose: 400.0 mg/kg/injection, schedule: Q01DX001 (ip), vehicle: other 97 % of control

O=S1(=O)CC(c2ccc(Cl)cc2)Nc2ccccc21 (stereo not given)
inactive: [14] 87 % of control | [6] 90 % of control | [15] 103 % of control | [16] 93 % of control | [7] 90 % of control | [17] 100 % of control | [18] 93 % of control | [20] 93 % of control | [19] 92 % of control

CC(C)=NNc1cccc2cccc(N)c12
inactive: dose: 100.0 mg/kg/injection, schedule: Q01DX001 (ip), vehicle: saline 97 % of control | dose: 200.0 mg/kg/injection, schedule: Q01DX001 (ip), vehicle: saline 95 % of control | dose: 400.0 mg/kg/injection, schedule: Q01DX001 (ip), vehicle: saline 97 % of control

Cc1cc(C)n(C(=O)Nc2ccccc2)n1
inactive: dose: 100.0 mg/kg/injection, schedule: Q04DX002 (ip), vehicle: saline with Tween-80 105 % of control | dose: 200.0 mg/kg/injection, schedule: Q04DX002 (ip), vehicle: saline with Tween-80 100 % of control

c1ccc2[nH]c(N3CCOCC3)nc2c1
inactive: dose: 50.0 mg/kg/injection, schedule: Q01DX009 (ip), vehicle: saline with Tween-80 100 % of control | [1] 107 % of control | [9] 96 % of control | [2] 96 % of control | [11] 97 % of control | [13] 103 % of control

NC(=O)N/N=C/c1[nH]c(=S)[nH]c(=O)c1Cc1ccc(Br)cc1
inactive: dose: 100.0 mg/kg/injection, schedule: Q01DX001 (ip), vehicle: saline with Tween-80 107 % of control | dose: 200.0 mg/kg/injection, schedule: Q01DX001 (ip), vehicle: saline with Tween-80 95 % of control | dose: 400.0 mg/kg/injection, schedule: Q01DX001 (ip), vehicle: saline with Tween-80 98 % of control

CCCCCCCCCCCCCSCCCCCCSCCCCCCCCCCCCC
inactive: [14] 89 % of control | [16] 96 % of control | [18] 98 % of control

CCC(/C=N/N=C(N)N)OC (stereo not given)
inactive: dose: 2.0 mg/kg/injection, schedule: Q01DX Z (oral), vehicle: saline 103 % of control | dose: 4.0 mg/kg/injection, schedule: Q01DX Z (oral), vehicle: saline 101 % of control | dose: 8.0 mg/kg/injection, schedule: Q01DX Z (oral), vehicle: saline 106 % of control | dose: 16.0 mg/kg/injection, schedule: Q01DX Z (oral), vehicle: saline 100 % of control | dose: 32.0 mg/kg/injection, schedule: Q01DX Z (oral), vehicle: saline 110 % of control | dose: 64.0 mg/kg/injection, schedule: Q01DX Z (oral), vehicle: saline 100 % of control | dose: 128.0 mg/kg/injection, schedule: Q01DX Z (oral), vehicle: saline 104 % of control and 113 % of control | dose: 256.0 mg/kg/injection, schedule: Q01DX Z (oral), vehicle: saline 98 % of control and 115 % of control

COC(=O)CC(=O)OCC1C=CCC=C1
inactive: [3] 106 % of control | [4] 95 % of control | [5] 92 % of control
